This passage reports IC50 results from patent US20040082635A1, “Fused cyclic compounds and medicinal use thereof” (priority 2001, published 2004).

Structures can show the parent of a compound that is named as a salt. Where two headings read alike, the source gives them in different places.

The term IC50 denotes the midpoint of a concentration-inhibition curve.

For the experiment, the target named is T1, HCV polymerase (Hepatitis C virus genotype 1b, UniProt P26663).
T1 construct: a region encoding NS5B (591 amino acids; J Virol 1991 Mar, 65(3), 1105-13) was amplified by PCR; 6 His (N); made in house; host or cells: Escherichia coli
T1 sequence (P26663 2420-3010): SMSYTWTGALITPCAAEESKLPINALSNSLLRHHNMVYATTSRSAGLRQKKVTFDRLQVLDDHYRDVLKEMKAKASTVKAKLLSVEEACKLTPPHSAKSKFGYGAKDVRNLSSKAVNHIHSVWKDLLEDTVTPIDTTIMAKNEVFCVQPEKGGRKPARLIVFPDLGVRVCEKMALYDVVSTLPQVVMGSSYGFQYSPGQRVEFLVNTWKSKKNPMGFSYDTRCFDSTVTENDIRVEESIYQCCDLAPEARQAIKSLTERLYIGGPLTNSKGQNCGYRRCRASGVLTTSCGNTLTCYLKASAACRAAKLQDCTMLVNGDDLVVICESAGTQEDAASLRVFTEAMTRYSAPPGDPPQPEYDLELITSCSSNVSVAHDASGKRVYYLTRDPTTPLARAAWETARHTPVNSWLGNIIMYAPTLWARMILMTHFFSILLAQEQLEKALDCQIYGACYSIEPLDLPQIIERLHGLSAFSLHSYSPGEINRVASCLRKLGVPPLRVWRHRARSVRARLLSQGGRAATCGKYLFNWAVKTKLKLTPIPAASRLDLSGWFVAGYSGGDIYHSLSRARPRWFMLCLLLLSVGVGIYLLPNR
The experiment in a line: biochemical.

[1] abbreviates: read-out: HCV polymerase inhibitory activity IC50.

Turning to `O=C(O)c1ccc2c(c1)nc(-c1ccc(OCc3cc(S(=O)(=O)N4CCC(O)CC4)ccc3-c3ccc(Cl)cc3)cc1)n2C1CCCCC1` [Example 359, 2-{4-[2-(4-chlorophenyl)-5-(4-hydroxypiperidin-1-ylsulfonyl)benzyloxy]phenyl}-1-cyclohexylbenzimidazole-5-carboxylic acid hydrochloride], under setting [1], the IC50 came to 15 nM.
Turning to `CC(C)NC(=O)c1ccc(-c2ccc(Cl)cc2)c(COc2ccc(-c3nc4cc(C(=O)O)ccc4n3N3CCCCC3)c(F)c2)c1` [Example 420, 2-{4-[2-(4-chlorophenyl)-5-(isopropylcarbamoyl)benzyloxy]-2-fluorophenyl}-1-piperidinobenzimidazole-5-carboxylic acid hydrochloride], the IC50 under setting [1] stood at 15 nM.
On to `O=C(O)c1ccc2c(c1)nc(-c1ccc(OCc3cc(OCCO)ccc3-c3ccc(Cl)cc3)cc1)n2C1CCCCC1` [Example 335, 2-{4-[2-(4-chlorophenyl)-5-(2-hydroxyethoxy)benzyloxy]phenyl}-1-cyclohexylbenzimidazole-5-carboxylic acid hydrochloride], for which the half-maximal inhibitory concentration (IC50) under setting [1] is 13 nM.
With `CN(C)C(=O)c1ccc(COc2ccc(-c3nc4cc(C(=O)O)ccc4n3C3CCCCC3)cc2)c(-c2ccc(Cl)cc2)c1` [Example 357, 2-{4-[2-(4-chlorophenyl)-4-(dimethylcarbamoyl)benzyloxy]phenyl}-1-cyclohexylbenzimidazole-5-carboxylic acid hydrochloride], under setting [1], the IC50 amounted to 19 nM.
As to `O=C(O)c1ccc2c(c1)nc(-c1ccc(OCc3ccc(Cl)c(Cl)c3)cc1)n2C1CCCC1` [Example 68, 1-cyclopentyl-2-[4-(3,4-dichlorobenzyloxy)phenyl]benzimidazole-5-carboxylic acid], the IC50 under setting [1] worked out at 280 nM.
On the same count and under the same terms, the figure for `O=C(O)c1ccc2c(c1)nc(-c1ccc(Oc3cccc(OCCc4ccccc4)c3)cc1)n2C1CCCCC1` [Example 124, 1-cyclohexyl-2-[4-(3-phenethyloxyphenoxy)phenyl]benzimidazole-5-carboxylic acid] is 91 nM; for `COC1CCN(C(=O)c2ccc(-c3ccc(Cl)cc3)c(COc3ccc(-c4nc5cc(C(=O)O)ccc5n4C4CCCCC4)cc3)c2)CC1` [Example 333, 2-{4-[2-(4-chlorophenyl)-5-(4-methoxypiperidinocarbonyl)-benzyloxy]phenyl}-1-cyclohexylbenzimidazole-5-carboxylic acid hydrochloride] it is 16 nM.
As to `O=C(O)c1ccc2c(c1)nc(-c1ccc(OCC(c3ccccc3)c3ccccc3)cc1)n2C1CCCCC1` [Example 125, 1-cyclohexyl-2-[4-(2,2-diphenylethoxy)phenyl]benzimidazole-5-carboxylic acid], the concentration for half-maximal inhibition (IC50) under setting [1] came to 120 nM.
On to `Cc1nc(-c2ccc(S(C)(=O)=O)cc2)c(COc2ccc(-c3nc4cc(C(=O)O)ccc4n3C3CCCCC3)cc2)s1` [Example 217, 1-cyclohexyl-2-{4-[{4-(4-methanesulfonylphenyl)-2-methyl-5-thiazolyl}methoxy]phenyl}benzimidazole-5-carboxylic acid], for which the 50% inhibitory concentration (IC50) under setting [1] is 58 nM.
In the case of `O=C(O)c1ccc2c(c1)nc(-c1ccc(OCc3cc(Cl)ccc3-c3cccc(Cl)c3)cc1)n2C1CCCCC1` [Example 169, 2-{4-[3-chloro-6-(3-chlorophenyl)benzyloxy]phenyl}-1-cyclohexylbenzimidazole-5-carboxylic acid], under setting [1], the concentration for half-maximal inhibition (IC50) was 150 nM.
Regarding `O=C(O)c1ccc2c(c1)nc(-c1ccc(OCc3sc(CO)nc3-c3ccc(F)cc3)cc1)n2C1CCCCC1` [Example 254, 1-cyclohexyl-2-{4-[{4-(4-fluorophenyl)-2-hydroxymethyl-5-thiazolyl}methoxy]phenyl}benzimidazole-5-carboxylic acid], the IC50 under setting [1] amounted to 38 nM.
With `CC(=O)N(C)c1ccc(-c2ccc(Cl)cc2)c(COc2ccc(-c3nc4cc(C(=O)O)ccc4n3C3CCCCC3)c(F)c2)c1` [Example 463, 2-[4-{2-(4-chlorophenyl)-5-(N-acetyl-N-methylamino)benzyloxy}-2-fluorophenyl]-1-cyclohexylbenzimidazole-5-carboxylic acid hydrochloride], the half-maximal inhibitory concentration (IC50) under setting [1] amounted to 26 nM.
`O=C(O)c1ccc2c(c1)nc(-c1ccc(Oc3ccccc3OCC3CCNCC3)cc1)n2C1CCCCC1` [Example 160, 1-cyclohexyl-2-{4-[2-(4-piperidylmethoxy)phenoxy]phenyl}-benzimidazole-5-carboxylic acid hydrochloride]: under setting [1], the IC50 came to 240 nM.
Turning to `Cc1noc(C)c1COc1ccc(-c2nc3cc(C(=O)O)ccc3n2C2CCCC2)cc1` [Example 51, 1-cyclopentyl-2-{4-[(3,5-dimethyl-4-isoxazolyl)methoxy]phenyl}-benzimidazole-5-carboxylic acid], under setting [1], the 50% inhibitory concentration (IC50) was found to be 1000 nM.
`O=C(O)c1ccc2c(c1)nc(-c1ccc(OCc3sc(C(=O)NCCO)nc3-c3ccc(F)cc3)cc1F)n2C1CCCCC1` [Example 430, 2-{4-[{4-(4-fluorophenyl)-2-{(2-hydroxyethyl)carbamoyl}thiazol-5-yl}methoxy]-2-fluorophenyl}-1-cyclohexylbenzimidazole-5-carboxylic acid hydrochloride]: the IC50 under setting [1] worked out at 17 nM.
Still for that read-out and setting: the figure for `CCC(=O)N(C)c1ccc(-c2ccc(Cl)cc2)c(COc2ccc(-c3nc4cc(C(=O)O)ccc4n3C3CCCCC3)c(F)c2)c1` [Example 466, 2-[4-{2-(4-chlorophenyl)-5-[N-(ethylcarbonyl)-N-methylamino]-benzyloxy}-2-fluorophenyl]-1-cyclohexylbenzimidazole-5-carboxylic acid hydrochloride] is 23 nM.
As to `CC(C)NC(=O)Nc1ccc(-c2ccc(Cl)cc2)c(COc2ccc(-c3nc4cc(C(=O)O)ccc4n3C3CCCCC3)c(F)c2)c1` [Example 395, 2-{4-[2-(4-chlorophenyl)-5-{(isopropylcarbamoyl)amino}benzyloxy]-2-fluorophenyl}-1-cyclohexylbenzimidazole-5-carboxylic acid hydrochloride], the 50% inhibitory concentration (IC50) under setting [1] was determined as 16 nM.
On to `CN(C)C(=O)c1cccc(C(Oc2ccc(-c3nc4cc(C(=O)O)ccc4n3C3CCCCC3)c(F)c2)c2ccc(F)cc2)c1` (centres unmarked) [Example 442, 2-{4-[(3-dimethylcarbamoylphenyl)(4-fluorophenyl)methoxy]-2-fluorophenyl}-1-cyclohexylbenzimidazole-5-carboxylic acid hydrochloride], for which the IC50 under setting [1] is 24 nM.
Turning to `CC(C)NC(=O)c1ccc(-c2ccc(Cl)cc2)c(COc2ccc(-c3nc4cc(C(=O)O)ccc4n3C3CCSCC3)cc2)c1` [Example 416, 2-{4-[2-(4-chlorophenyl)-5-(isopropylcarbamoyl)benzyloxy]phenyl}-1-(tetrahydrothiopyran-4-yl)benzimidazole-5-carboxylic acid hydrochloride], the IC50 under setting [1] turned out to be 24 nM.
Same read-out and setting: the figure for `O=C(O)c1ccc2c(c1)nc(-c1ccc(N(Cc3ccccc3)Cc3ccccc3)cc1)n2C1CCCCC1` [Example 87, 1-cyclohexyl-2-[4-(dibenzylamino)phenyl]benzimidazole-5-carboxylic acid] is 800 nM; for `O=C(O)c1ccc2c(c1)nc(-c1ccc(OCc3cc(C(=O)N4CCSCC4)ccc3-c3ccc(Cl)cc3)cc1F)n2C1CCCCC1` [Example 291, 2-{4-[2-(4-chlorophenyl)-5-thiomorpholinocarbonylbenzyloxy]-2-fluorophenyl}-1-cyclohexylbenzimidazole-5-carboxylic acid] it is 16 nM.
As for `NC(=O)COCc1nc(-c2ccc(F)cc2)c(COc2ccc(-c3nc4cc(C(=O)O)ccc4n3C3CCCCC3)cc2)s1` [Example 428, 2-{4-[{4-(4-fluorophenyl)-2-[(carbamoylmethoxy)methyl]thiazol-5-yl}methoxy]phenyl}-1-cyclohexylbenzimidazole-5-carboxylic acid hydrochloride], the IC50 under setting [1] came out at 26 nM.
Same read-out and setting: the figure for `CC(=O)N1CCC(COc2cccc(Oc3ccc(-c4nc5cc(C(=O)O)ccc5n4C4CCCCC4)cc3)c2)CC1` [Example 176, 2-{4-[3-{(1-acetyl-4-piperidyl)methoxy}phenoxy]phenyl}-1-cyclohexylbenzimidazole-5-carboxylic acid] is 53 nM; for `N#Cc1ccc(-c2ccc(Cl)cc2)c(COc2ccc(-c3nc4cc(C(=O)O)ccc4n3C3CCCCC3)cc2)c1` [Example 299, 2-{4-[2-(4-chlorophenyl)-5-cyanobenzyloxy]phenyl}-1-cyclohexyl-benzimidazole-5-carboxylic acid] it is 18 nM.
Take `CC(C)(CO)NC(=O)c1ccc(-c2ccc(Cl)cc2)c(COc2ccc(-c3nc4cc(C(=O)O)ccc4n3C3CCCCC3)cc2)c1` [Example 352, 2-{4-[2-(4-chlorophenyl)-5-{(1-hydroxy-2-methylpropan-2-yl)carbamoyl}benzyloxy]phenyl}-1-cyclohexylbenzimidazole-5-carboxylic acid hydrochloride]: under setting [1], the IC50 turned out to be 13 nM.
For `O=C(O)c1ccc2c(c1)nc(-c1ccc(Oc3cccc(OCc4ccnc(Cl)c4)c3)cc1)n2C1CCCCC1` [Example 227, 2-{4-[3-{(2-chloro-4-pyridyl)methoxy}phenoxy]phenyl}-1-cyclohexylbenzimidazole-5-carboxylic acid], under setting [1], the concentration for half-maximal inhibition (IC50) worked out at 45 nM.
Same read-out and setting: the figure for `COc1c(C(=O)O)ccc2c1nc(-c1ccc(OCc3cc(C(=O)NC(C)C)ccc3-c3ccc(Cl)cc3)cc1F)n2C1CCCCC1` [Example 450, 2-[4-{2-(4-chlorophenyl)-5-(isopropylaminocarbonyl)benzyloxy}-2-fluorophenyl]-1-cyclohexyl-4-methoxybenzimidazole-5-carboxylic acid hydrochloride] is 40 nM.
As for `O=C(O)c1ccc2c(c1)nc(-c1ccc(OC(c3ccccc3)c3ccccc3)cc1)n2C1CCCCC1` [Example 82, 1-cyclohexyl-2-[4-(diphenylmethoxy)phenyl]benzimidazole-5-carboxylic acid], the IC50 under setting [1] was determined as 97 nM.
Regarding `O=C1CCN(C(=O)c2ccc(-c3ccc(Cl)cc3)c(COc3ccc(-c4nc5cc(C(=O)O)ccc5n4C4CCCCC4)cc3)c2)CC1` [Example 328, 2-{4-[2-(4-chlorophenyl)-5-(4-oxopiperidinocarbonyl)-benzyloxy]phenyl}-1-cyclohexylbenzimidazole-5-carboxylic acid hydrochloride], the concentration for half-maximal inhibition (IC50) (HCV polymerase inhibitory activity IC50) came to 15 nM.
